We go through five molecules from patent US20090312390A1, “INHIBITORS OF GLYCOGEN SYNTHASE KINASE-3 (GSK-3) FOR TREATING GLAUCOMA” (ALCON, INC., priority 2001, published 2009).

Assay [1] deals with central and peripheral neurons grown in culture. The conditions noted are these: death induced by reduced phosphatidyl inositol pathway activity (Cross et al.); cited from earlier work.
The subject of the next assay is GSK-3. The conditions noted are these: literature report; cited from earlier work.
In assay [2] the test system is perfused human ocular anterior segments. As to the kind of experiment: Outflow rate in perfused human ocular anterior segments maintained in culture. The procedure:
(§1) Recently it has been discovered that frizzled related protein (FRP) is differentially expressed in a number of glaucomatous trabecular meshwork cell lines. […] The decreased flow rate in the cultured anterior segments models an increase in resistance to outflow (increase in intraocular pressure) in intact eye.
Human ocular anterior segments are perfused with Dulbecco's modified Eagle's medium (DMEM) at a constant pressure of 11 mm Hg. The outflow rate of each eye is measured by weighing its reservoir at specified periods. After a stabilization period, the eyes are perfused with either vehicle or FRP-1 (10 μg/ml) and their outflow rates monitored for 2-5 days. […] Inhibitor is added and the anterior segment is perfused for an additional 2-4 days. Outflow rate is measured by weighing its reservoir at specific periods.

Another assay has as its system β-catenin. Put plainly: β-catenin protein levels in ciliary body and trabecular meshwork of perfused anterior segments. More on the design: species or system human. To be noted: ciliary body and trabecular meshwork (TM) after FRP-1 perfusion.
Excerpt: as §1

Consider `O=C1NC(=O)C(c2ccccc2[N+](=O)[O-])=C1Nc1ccc(O)c(Cl)c1` [SB-415286], for which, in assay [1], the “protection of neurons from death” value was “protected both central and peripheral neurons”.
As for `CN(C)CCCn1cc(C2=C(c3c[nH]c4ccccc34)C(=O)NC2=O)c2ccccc21` [GF1092], the GSK-3 inhibition result in the assay with GSK-3 is “inhibitors of GSK-3”.
Take `Cn1cc(C2=C(c3cn(CCCSC(=N)N)c4ccccc34)C(=O)NC2=O)c2ccccc21` [Ro 31-8220]: in the assay on GSK-3, the GSK-3 inhibition entry is recorded as “inhibitors of GSK-3”.
Consider `Cn1cc(C2=C(c3ccc(Cl)cc3Cl)C(=O)NC2=O)c2ccccc21` [SB216763], for which the “protection of neurons from death” value in assay [1] was “protected both central and peripheral neurons”.

B1: FRP-1: frizzled related protein, secreted protein that antagonizes the Wnt signaling pathway (protein, UniProt Q8N474 32-314, looked up)
Secreted frizzled-related …: SEYDYVSFQSDIGPYQSGRFYTKPPQCVDIPADLRLCHNVGYKKMVLPNLLEHETMAEVKQQASSWVPLLNKNCHAGTQVFLCSLFAPVCLDRPIYPCRWLCEAVRDSCEPVMQFFGFYWPEMLKCDKFPEGDVCIAMTPPNATEASKPQGTTVCPPCDNELKSEAIIEHLCASEFALRMKIKEVKKENGDKKIVPKKKKPLKLGPIKKKDLKKLVLYLKNGADCPCHQLDNLSHHFLIMGRKVKSQYLLTAIHKWDKKNKEFKNFMKKMKNHECPTFQSVFK
Turning to B1, the aqueous humor outflow result in assay [2] (FRP-1 10 μg/ml, constant pressure 11 mm Hg, outflow monitored 2-5 days) was “decrease in aqueous humor outflow”. Moreover, in assay [2] (perfusion of FRP-1 through perfused human ocular anterior segments in culture), the flowrate entry is “decrease in flowrate”. Also, the β-catenin protein levels entry with β-catenin is on record as “decrease in β-catenin protein levels”.
